Assay results reported in patent US20110071129A1, “SPIRODIAMINE-DIARYL KETOXIME DERIVATIVE” (priority 2008, published 2011).
pIC50: −log10 of the molar value.

The molecules below were run against T1, human MCH-1R (Homo sapiens, UniProt Q99705) (assay: MCH binding inhibition test). Conditions: inhibition of specific [125I]MCH (50 pM) binding; membranes of MCH-1R expressing CHO-K1 cells; 25° C., one hour.
T1 construct: expressed in transfected cells; host or cells: CHO-K1 (American Type Culture Collection), vector pEF/myc/cyto; membranes used
Protocol: A human MCH-1R encoding cDNA sequence [FEBS Letters, Vol. 398, 253 (1996); Biochimica et Biophisica Acta, Vol. 1401, 216 (1998)] was cloned to a plasmid vector pEF/myc/cyto (by Invitrogen Corporation). The obtained expression vector was transfected to host cells CHO-K1 (American Type Culture Collection) using Lipofectamine Plus Reagent (by Life Technology Inc.) to provide MCH-1R expression cells.
Membrane samples prepared from the MCH-1R expression cells were incubated with each test compound and 50 pM of [^125I]MCH (by NEN Co.), in an assay buffer (50 mM Tris buffer comprising 10 mM magnesium chloride, 2 mM ethylenediamine tetraacetate, 0.01% bacitracin and 0.2% bovine serum albumin; pH 7.4) at 25° C. for an hour, followed by filtration through a glass filter GF/C (by Wattman Co.). After washing the glass filter with 50 mM Tris buffer (pH 7.4) comprising 10 mM magnesium chloride, 2 mM ethylenediamine tetraacetate and 0.04% Tween-20, the radioactive activity on the glass filter was measured. The non-specific binding was measured in the presence of 1 μM human MCH, and the 50% inhibition concentration (IC50 value) of each test compound to the specific [^125I]MCH binding was determined.

T1 sequence (Q99705 whole entry): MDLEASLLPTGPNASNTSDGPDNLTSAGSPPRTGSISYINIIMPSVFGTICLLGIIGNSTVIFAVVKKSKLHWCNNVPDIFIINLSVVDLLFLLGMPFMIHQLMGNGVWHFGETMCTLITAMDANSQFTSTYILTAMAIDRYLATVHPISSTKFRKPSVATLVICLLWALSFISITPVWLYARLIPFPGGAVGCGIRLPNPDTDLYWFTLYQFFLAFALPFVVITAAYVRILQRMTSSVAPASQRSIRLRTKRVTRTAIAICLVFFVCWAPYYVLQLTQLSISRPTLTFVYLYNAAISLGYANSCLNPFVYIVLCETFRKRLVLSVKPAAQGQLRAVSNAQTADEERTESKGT

pIC50	Compound
9.44	CCCc1cnc2cc(N3CC4(CN(Cc5ccc(/C(=N/OCC)c6ccc(F)c(F)c6)nc5)C4)C3)ccn12 [Example 2-44, (E)-(3,4-difluorophenyl)(5-{[6-(3-propylimidazo[1,2-a]pyridin-7-yl)-2,6-diazaspiro[3.3]hept-2-yl]methyl}-2-pyridinyl)methanone O-ethyloxime]
8.49	CCO/N=C(\c1ccc(F)c(F)c1)c1ccc(CN2CCC3(CCN(c4ccnnc4)C3)C2)cn1 (centres unmarked) [Example 2-3, (E)-(3,4-difluorophenyl)(5-{[7-(4-pyrazinyl)-2,7-diazaspiro[4.4]non-2-yl]methyl}-2-pyridinyl)methanone O-ethyloxime]
8.62	CCO/N=C(\c1ccc(F)c(F)c1)c1ccc(CN2CC3(C2)CN(c2ccnc(C)c2)C3)cn1 [Example 2-24, (E)-(3,4-difluorophenyl)(5-{[6-(2-methyl-4-pyridinyl)-2,6-diazaspiro[3.3]hept-2-yl]methyl}-2-pyridinyl)methanone O-ethyloxime]
8.12	CCO/N=C(\c1ccc(F)c(F)c1)c1ccc(CN2CC3(CCN(c4ccc(F)nc4)C3)C2)cn1 [Example 1-10, (E)-(3,4-difluorophenyl)(5-{[6-(6-fluoro-3-pyridinyl)-2,6-diazaspiro[3.4]oct-2-yl]methyl}-2-pyridinyl)methanone O-ethyloxime]
9.05	CCO/N=C(\c1ccc(F)c(F)c1)c1ccc(CN2CC3(C2)CN(c2ccn4ccnc4c2)C3)cn1 [Example 2-40, (E)-(3,4-difluorophenyl){5-[(6-imidazo[1,2-a]pyridin-7-yl-2,6-diazaspiro[3.3]hept-2-yl)methyl]-2-pyridinyl}methanone O-ethyloxime]
